The source of these data is US10858305B2, “Perillyl alcohol-3-bromopyruvate conjugate and methods of treating cancer” (NeOnc Technologies, Inc., priority 2016, dated 2020).

The structures appear in SMILES notation. Entries after “also recorded” stand apart in the source; their conditions may differ. Where two headings read alike, the source gives them in different places.

Assay [1] relates to HCT116 colon cancer cells. The experiment in a line: LDH release assay in HCT116 cells. The assay is classed as cell-based. To be noted: Homo sapiens, HCT-116; HCT116, 16 hours; read-out: half-maximal effect, LDH assay. As to the method:
(§1) (A) MTT assay was performed after 24 hours. […] (B) LDH assay was performed after […]. LDH release by untreated cells was set to 1. Relative fold increase is shown (n=3).
(§2) The capacity for rapid cell killing by NEO218 relative to 3-BP, POH and 3-BP+POH was evaluated via LDH assay, where LDH release is used as a proxy for cell death.
(§3) In FIG. 4, Panels (a) and (b), show the results of treating breast cancer cell lines with increasing concentrations of NEO218, 3-BP, or 3-BP mixed with POH. […] In all cases a-d, the release of LDH (as a marker of cell death) was measured after 24 hours.
(§4) Depending on the cell line, 2000 to 4000 cells per well were seeded in a volume of 50 μL into a 96-well plate. The next day, drugs ere added in an additional 50 μL of medium. At different time points (usually after 24 hours of incubation), 50 μL medium was removed and processed with the LDH Cytotoxicity Assay Kit (Thermo Fisher Scientific, Waltham, Mass.) according to the manufacturer's instructions. This kit measures extracellular LDH in culture medium using an enzymatic reaction that results in a red formazan product, which can be measured spectrophotometrically. The absorbance was measured at 490 and 680 nm. All LDH levels were normalized to untreated controls and presented as fold change of the controls.

The test system of assay [2] is tumor cells (two cell lines, incl. MCF7/Dox). The experiment in a line: Colony formation assay (CFA), 24 hours drug exposure (FIG. 5). The assay is classed as cell-based, human. The note with it: colonies after ten to fifteen days. The protocol: The effect of NEO218 on tumor cell survival and colony formation relative to 3-BP, POH and 3-BP+POH was evaluated via the colony formation assay (CFA). Six hundred cells per culture well were seeded and exposed to increasing concentrations of NEO218, 3-BP, a mix of 3-BP+POH, or POH alone. After 24 hours, all drugs were removed from cells and fresh culture medium was added. Ten to fifteen days later, the surviving cells had formed colonies of descendants, which were stained and counted.

The test system of a further assay is MDA-MB-231 cells. The experiment in a line: MTT short-term toxicity assay in MDA-MB-231 cells. In kind it is cell-based, human. As to the method:
as §1
(§5) (A) MTT assay was performed after 24 hours. Viability of untreated cells was set at 100% (data points are averages of 2 experiments). (B) LDH assay was performed after 24 hours. LDH release by untreated cells was set to 1. Relative fold increase is shown (averages from 2 experiments). (C) Representative photos show typical colony formation after initial 48 hours of drug treatment. In all cases of combination treatment with 3-BP mixed with […] (3-BP+POH), the indicated concentrations refer to each individual drugs, i.e., 100 μM 3-BP+POH means that 100 μM 3-BP was combined with 100 μM POH.
Methylthiazoletetrazolium (MTT) assays were performed as described earlier.

In assay [3] the test system is all cell types (breast, brain, ovary, colon cancer cell lines). The assay is described as follows: Summary of cytotoxicity over MTT, LDH and colony formation assays (FIGS. 2-5). The note with it: for IC50: Homo sapiens. In kind it is cell-based, human. The source says: The tumor cell-killing potency of NEO218 was characterized by in vitro, short-term MTT assays (measuring viability of cells via determination of metabolic activity), LDH assays (measuring the release of lactate dehydrogenase as an indicator of leaky cell membranes, which are indicative of dying cells), and colony-formation assays (CFA, which determine long-term survival of drug-treated cells and their ability to spawn a colony of descendants). Several established cell lines derived from cancers of the breast were used as target cells (including MDA-MB-231; MDA-MB-468; T47D; MCF7; MCF7/Dox; BTB12), brain (T98G; U251), ovary (A2780), and colon (HCT116). In all cases, cells in culture were exposed to increasing concentrations of agents for 24 or 48 hours.

Assay [4] has as its system MDA-MB-231 breast cancer cells. The assay is described as follows: LDH release assay in MDA-MB-231 / breast cancer cell lines. The assay is classed as cell-based, human. As to the method: as §1, §5, §2, §3, §4
In general terms: LDH leaks from cells whose membrane has failed.

Another assay deals with HCT116 cells. The experiment in a line: FACS analysis for annexin V and propidium iodide. The assay is classed as cell-based, human. To be noted: for incorporation of PI (necrosis) versus annexin V (apoptosis): 2, 4 or 8 hours of treatment; for earliest detection of shift to PI-positive quadrant after onset of treatment: HCT116, 30 μM; for PI-positive cells at 8 hours: HCT116, 8 hours. As to the method: (A) FACS analysis of HCT116 cells after treatment for 2, 4, or 8 hours with vehicle, 30 μM 3-BP, 30 μM NEO218, or 1 μM staurosporine (STS). […] (B) Western blot analysis of apoptotic markers. In the top section, MDA-MB-231 cells were treated with 30 μM NEO218 or 1 μM STS for various time points. In the lower section, HCT116 cells were treated with the indicated concentrations of 3-BP, NEO218, or STS for 16 hours. In all cases cell lysates were prepared and analyzed for the well-established apoptotic markers cleaved PARP, cleaved (i.e., activated) caspase 7 (cl. C-7), and phosphorylated (i.e., active) H2AX. Actin was used as a loading control. (C) HCT116 cells were pretreated with 50 μM Z-VAD-FMK for one hour, followed by the addition of increasing concentrations of 3-BP or NEO218. Cell viability was determined by MTT assay 24 hours later. Data points are averages from n=3.
In the absence of indications that apoptotic mechanisms played a significant role in cell death induced by NEO218, necrosis was investigated as a potential key mechanism. The distinction between apoptotic and necrotic cell death was made by measuring annexin V staining (a marker of apoptosis) and PI (propidium iodide) staining (a marker of necrosis) of drug-treated cells, in comparison to non-drug-treated cells (as a control). Measurements of annexin V and PI were done by FACS analysis after 2, 4, or 8 hours of treatment. Cells were treated with NEO218, 3-BP, and staurosporine (individually), and incorporation of propidium iodide (PI, a marker of necrotic cell death) or annexin V (a marker for apoptosis) was determined by fluorescence-activated cell sorting.
The results are organized in FIG. 8 as follows: no treatment (top row), 3-BP (second row), NEO218 (third row), and staurosporine (bottom row).
Characterization of cell death was performed by flow cytometry using the Alexa Fluor® 488 Annexin V/Dead Cell Apoptosis kit (Thermo Fisher Scientific). This kit contains recombinant, green fluorophore-conjugated annexin V, which reacts with apoptotic cells, and DNA-binding, red-fluorescent propidium iodide (PI), which is impermeant to live and apoptotic cells, but stains dead cells. The different cell populations can be distinguished by green fluorescence (apoptotic cells), red fluorescence (necrotic/dead cells), and no fluorescence (live cells) during flow cytometry with 488 nm laser excitation. Control or drug-treated cells were processed as per manufacturer's instructions, followed by flow cytometry of 10,000 cells per point with an LSR II (BD Biosciences, San Jose, Calif.) at the USC Flow Cytometry Core Facility.
In general terms: In flow cytometry, cells or beads pass a laser one at a time.

Where [5] appears, read: all cell types, FIGS. 2-5, read-out: IC50 (ability of a drug to reduce cell survival by 50%).

`O=C(O)C(=O)CBr` [3-BP, 3-bromopyruvate]: the EC50 in assay [1] is roughly 8 µM; in assay [4] (Homo sapiens, MDA-MB-231, 16 hours, read-out: effective concentration (half-maximal), LDH assay) it was roughly 350 µM. In addition, the “inhibition of colony formation, comparison” value in assay [2] is given as “substantially less potent”. Further, the IC50 is roughly 220 µM in the assay with MDA-MB-231 cells (Homo sapiens, MDA-MB-231, 24 hours, read-out: effective concentration (half-maximal), MTT assay); 10 to 200 µM in assay [3] (setting [5]); greater than 200 µM in assay [3] (cell types in which 3-BP is not similarly potent, read-out: concentrations required for cell death in less sensitive cell types). Moreover, the “incorporation of PI (necrosis) versus annexin V (apoptosis)” value in the assay with HCT116 cells is “vigorous incorporation of PI, but very little annexin V”; in the assay on HCT116 cells (listed as 3-GP) it was “move straight from the bottom left quadrant to the upper right quadrant”. Also, the “earliest detection of shift to PI-positive quadrant after onset of treatment” value in the assay with HCT116 cells turned out to be 2 h. For the same molecule, in the assay with HCT116 cells, the “PI-positive cells at 8 hours” value is reported as “the majority of cells was PI-positive”.

On to `C=C(C)[C@@H]1CC=C(COC(=O)C(=O)CBr)CC1` [NEO218, 3-bromo-2-oxo-propionic acid 4-isopropenyl-cyclohex-1-enylmethyl ester], for which, in assay [1], the EC50 was roughly 8 µM. The IC50 in assay [2] (Homo sapiens, MCF7-DOX, read-out: IC50 (cell survival and colony formation)) was less than 10 µM. The “potency in MDA-MB-231 compared with HCT116 / with 3-BP alone” value in the assay with MDA-MB-231 cells (MTT, LDH and CFA assays) is listed as “maintained the same high potency”. Further, the IC50 in assay [3] (setting [5]) fell in the range of 5 to 30 µM. Moreover, the “killing of drug-resistant cells” value in assay [3] (T98G (TMZ-resistant) and MCF7/Dox (multi-drug-resistant) cells) was “effectively killed”. Moreover, in assay [4] (MDA-MB-231, time course), the “earliest detection of cytotoxic effects (LDH release) after onset of drug treatment” value was 1 h. In addition, in assay [4] (MDA-MB-231, time course of LDH release), the “time at which half-maximal extent of cell death is reached” value was less than 8 h. In the assay on HCT116 cells, the “incorporation of PI (necrosis) versus annexin V (apoptosis)” value was “move straight from the bottom left quadrant to the upper right quadrant; also recorded: vigorous incorporation of PI, but very little annexin V”; the “earliest detection of shift to PI-positive quadrant after onset of treatment” value turned out to be 2 h; the “PI-positive cells at 8 hours” value was “the majority of cells was PI-positive”. The “time to initiation of cell death” value with HCT116 cells (FIG. 8 and LDH time course of FIG. 4) lay within 1 to 2 h.
